Reference: patent US20240285555A1, “COMPOSITIONS FOR THE TREATMENT OF COPPER DEFICIENCY AND METHODS OF USE” (priority 2018, published 2024)

Assays:
[1] = tested on: CcO-containing mitochondrial respiratory chain supercomplexes; experiment: Assembly and activity of CcO-containing supercomplexes (native PAGE blotting, in-gel activity); type: cell-based, Saccharomyces cerevisiae; conditions: 20 nM ES, YP galactose medium
Method: FIGS. 2A, 2B, 2C, 2D and 2E illustrate elesclomol supplementation rescues CcO assembly defects by restoring mitochondrial copper levels of yeast S. cerevisiae coa6Δ cells. FIGS. 2A-2C illustrate bioenergetic parameters of wild type (WT), coa6Δ, and coa6Δ cells supplemented with 20 nM ES were cultured in YP galactose medium until early stationary growth phase. […] Error bars represent mean±SD (n=3, two-tailed unpaired Student's t-test *p<0.05, **p<0.005).
Immunoblotting and In-gel Activities. Sodium dodecyl sulfate polyacrylamide gel electrophoresis (SDS-PAGE) and Blue Native PAGE (BN-PAGE) were performed to separate denatured and native protein complexes, respectively. For SDS-PAGE, mitochondrial lysate ([…]) was separated on NuPAGE 4-12% Bis-Tris gels (Life Technologies, Carlsbad, CA). For BN-PAGE, yeast mitochondria were solubilized in buffer containing 1% digitonin (Life Technologies) by incubating for 15 min at 4° C. […]
A number of copper-binding pharmacological agents were tested for their ability to rescue respiratory deficient growth of coa6Δ cells. […] To determine the biochemical basis for the observed respiratory rescue of coa6Δ cells, the assembly and activity of CcO-containing mitochondrial respiratory chain supercomplexes was measured by native-polyacrylamide gel electrophoresis blotting and in-gel activity assay, respectively. […]

ccs1Δ cells = experiment: Respiratory growth rescue of ccs1Δ yeast; type: cell-based, Saccharomyces cerevisiae; conditions: non-fermentable media, 37° C.
Method: Yeast Strains and Culture Conditions. The authenticity of yeast strains was confirmed by PCR as well as by replica plating on dropout plates. Yeast cells were cultured in standard YP growth media including YPD (1% yeast extract, 2% peptone and 2% glucose), YPGal (2% galactose), YPGE (3% glycerol+1% ethanol), or synthetic media (SC glucose). For qualitative growth measurement, 10-fold serial dilutions of overnight cultures were spotted on YPD or YPGE plates and incubated at 30° C. and 37° C. for the indicated period. Growth in liquid media was measured spectrophotometrically at 600 nm.
ES Rescues Many Different Yeast Mutants with Impaired Copper Metabolism. To test the specificity of ES mediated rescue, a number of yeast mutants of genes required for maintaining cellular and mitochondrial copper homeostasis were shortlisted. Genes were prioritized based on their evolutionary conservation, presence of pathogenic mutations in humans, and/or the existence of a related mouse phenotype (Table 3, shown below). […] Most of the yeast mutants were rescued with ES supplementation, albeit to different degrees, reflecting their distinct roles in cellular and mitochondrial copper homeostasis. […]

[2] = tested on: Ctr1^−/− zebrafish embryos; experiment: Pigmentation defect in embryos from Ctr1 heterozygous zebrafish crosses; type: in vivo
Method: Zebrafish Experiments. […] Morpholino-based experiments were performed.
ES Supplementation Rescues Copper Deficiency Phenotypes in Zebrafish Models. To determine whether ES can rescue phenotypes associated with copper deficiency in an intact developing vertebrate animal model, zebrafish embryos with a null mutation in the gene encoding the plasma membrane copper importer Ctr1 were utilized. Zebrafish were chosen because of the ability to quickly monitor the pigmentation defect that arises due to the copper requirement of tyrosinase, an enzyme that catalyzes the critical step in melanin biosynthesis. Wild type zebrafish embryos have a characteristic melanin pigmentation pattern visible at 48 hpf. […] […] To determine whether ES can rescue the observed CcO assembly defect, clutches of embryos were grown from heterozygous Ctr1 crosses in the presence of ES until 10 dpf and levels of Cox1 in their mitochondrial extracts were measured.

zebrafish embryos = experiment: Survival of zebrafish embryos treated with ES, copper and combinations; type: in vivo
From the text: NT, No treatment; ES, Elesclomol.

Structure (SMILES): CN(NC(=O)CC(=O)NN(C)C(=S)c1ccccc1)C(=S)c1ccccc1 [ES, elesclomol]
- abundance and activity of CcO-containing supercomplexes [1]: restored the abundance and activity of CcO-containing supercomplexes to near wild type levels
- rescue of the respiratory growth defect (ccs1Δ cells): rescue
- melanin pigmentation at 48 hpf ([2]; 10 nM ES from 3 hpf): all of the ES treated embryos from the same crosses were pigmented
- rescue of the pigmentation defect ([2]; 100 nM ES or the equivalent dose of copper): rescue of the pigmentation defect
- lethality (zebrafish embryos; co-supplementation of 100 nM ES with 100 nM of copper): 100%
- maximal tolerable dose (zebrafish embryos; zebrafish embryos): 100 nM
